pEC50: −log10 of the molar value. Calls of active or inactive are those of the source. The rule behind the calls is not given here.
How the values were obtained:
[1] = Kinetic aqueous solubility of compound in PBS at pH 6.4 to 7.5 measured after 2 hrs by spectrophotometry analysis; assay type: physicochemical; conditions: read-out: Kinetic_solubility
[2] = Inhibition of glycoprotein in VSV pseudotyped Ebolavirus infected in African green monkey Vero cells assessed as reduction in virus entry incubated for 24 hrs by luciferase reporter gene assay; assay type: cell-based
Vero [3] = experiment: Inhibition of glycoprotein in pseudotyped Vesicular stomatitis virus infected in African green monkey Vero cells assessed as reduction in virus entry at 5 uM incubated for 24 hrs by luciferase reporter gene assay; assay type: cell-based
Vero [4] = experiment: Inhibition of glycoprotein in VSV pseudotyped Ebolavirus infected in African green monkey Vero cells assessed as reduction in virus entry at 5 uM incubated for 24 hrs by luciferase reporter gene assay relative to control; assay type: cell-based
[5] = Metabolic stability in human liver microsomes assessed as parent compound remaining at 1 uM pretreated for 30 mins followed by NADPH addition and measured after 60 mins by LC-MS/MS analysis; assay type: ADME, Microsome; conditions: microsomes, 1 h, 1 µM
[6] = Cytotoxicity against African green monkey Vero E6 cells assessed as reduction in cell viability incubated for 10 days by neutral red dye based spectrophotometry analysis; design: species or system Vero C1008; conditions: chlorocebus sabaeus
[7] = Selectivity index, ratio of CC50 for African green monkey Vero E6 cells assessed as reduction in cell viability incubated for 10 days by neutral red dye based spectrophotometry analysis to EC90 for wild type Ebolavirus infected in African green monkey Vero E6 cells assessed as reduction in viral replication by virus yield reduction assay; assay type: toxicity, Vero C1008; conditions: read-out: Selectivity Index
[8] = Metabolic stability in Cynomolgus monkey liver microsomes assessed as parent compound remaining at 1 uM pretreated for 30 mins followed by NADPH addition and measured after 60 mins by LC-MS/MS analysis; assay type: ADME, Macaca fascicularis, Microsome; conditions: read-out: Stability
[9] = Metabolic stability in mouse liver microsomes assessed as parent compound remaining at 1 uM pretreated for 30 mins followed by NADPH addition and measured after 60 mins by LC-MS/MS analysis; assay type: ADME, Microsome; conditions: read-out: Stability
[10] = Aqueous solubility of compound in PBS at pH 7.4 measured after 2 hrs by spectrophotometry analysis; assay type: physicochemical
Ebolavirus = experiment: Antiviral activity against wild type Ebolavirus infected in African green monkey Vero E6 cells assessed as inhibition of viral entry compound treated with primary viral infected cells for 60 mins and after 3 days post-infection measured following 10 days of compound incubation with fresh cells infected with primary culture supernatants by virus yield reduction assay; assay type: functional; conditions: Orthoebolavirus, Vero C1008

Row | SMILES | solubility kinetic at 2 h [1] | pEC50 ([2]; Orthoebolavirus, Vero, 24 h) | further results
1 | O=C(NC1CCN(Cc2ccccc2)CC1)C12CC3CC(CC(C3)C1)C2 | > 100 µM | 5.41 | inhibition (Vero [3]): inactive; inhibition (Vero [4]): > 50%
2 | O=C(N1CCc2ccccc2C1)C12CC3CC(C1)CC(c1ccccc1)(C3)C2 | > 100 µM | 5.64 | 
3 | O=C(NC1CCNCC1)C12CC3CC1CC(c1ccccc1)(C3)C2 (centres undefined) | > 100 µM | 6.48 | 
4 | c1ccc(C23CC4CC(CC(CNC5CCNCC5)(C4)C2)C3)cc1 | > 100 µM | 6.33 | 
5 | O=C(NC1CCNCC1)C12CC3CC(C1)CC(c1ccc(Cl)cc1)(C3)C2 | > 100 µM | 6.72 | 
6 | C[C@@]12C[C@H]3C[C@@](C(=O)NC4CCNCC4)(C1)C[C@](c1ccccc1)(C3)C2 |  |  | pEC50 ([2]; vero): 6.62
7 | C[C@]12C[C@@H]3C[C@](C(=O)NC4CCNCC4)(C1)C[C@@](c1ccccc1)(C3)C2 |  |  | Stability [5]: 81%; CC50 at 240 h [6]: 71000 nM; pEC50 ([2]; vero): 7.55; selectivity ratio at 240 h [7]: 34; remaining at 1 h, 1 µM [8]: 83%; remaining at 1 h, 1 µM [9]: 86%; solubility at 2 h [10]: > 20 mg/mL; EC90 (Ebolavirus): 2100 nM
8 | O=C(N1CCNCC1)C12CC3CC(C1)CC(c1ccccc1)(C3)C2 | > 100 µM | 6.59 | 
9 | COc1ccc(C23CC4CC(CC(C(=O)NC5CCNCC5)(C4)C2)C3)cc1 | > 100 µM | 6.42 | 
10 | CC12CC3(C)CC(C(=O)NC4CCNCC4)(C1)CC(c1ccccc1)(C2)C3 | > 100 µM | 6.49 | 
11 | O=C(NC1CCN(Cc2ccccc2)CC1)C12CC3CC(C1)CC(c1ccccc1)(C3)C2 | > 100 µM | 6.42 | 
12 | O=C(NC1CCNCC1)C12CC3CC(C1)CC(c1ccc(F)cc1)(C3)C2 | > 100 µM | 6.51 | 
13 | O=C(NC12CC3CC(C1)CC(c1ccccc1)(C3)C2)C1CCNCC1 | > 100 µM | < 6.00 | 
14 | O=C(NC1CCNCC1)C1C2CC3CC1CC(c1ccccc1)(C3)C2 (centres undefined) | > 100 µM | 6.74 | 
15 | CN1CCC(N(C)C(=O)C23CC4CC(C2)CC(c2ccccc2)(C4)C3)CC1 | > 100 µM | 6.55 | 
16 | O=C(NC1CCNCC1)C12CC3CC(C1)CC(c1ccc(O)cc1)(C3)C2 | > 100 µM | 5.77 | 
17 | CN1CCC(NC(=O)C23CC4CC(C2)CC(c2ccccc2)(C4)C3)CC1 | > 100 µM | 6.80 | 
18 | NC1CCN(C(=O)C23CC4CC(C2)CC(c2ccccc2)(C4)C3)CC1 | > 100 µM | 6.92 | 
19 | O=C(CC12CC3CC(C1)CC(c1ccccc1)(C3)C2)NC1CCNCC1 | > 100 µM | 6.31 | 
20 | O=C(NC1CCNCC1)NC12CC3CC(C1)CC(c1ccccc1)(C3)C2 | > 100 µM | < 6.00 | 
21 | O=C(NC1CCNCC1)C12CC3CC(C1)CC(c1ccc([N+](=O)[O-])cc1)(C3)C2 | > 100 µM | < 5.52 | 

Source: ChEMBL document CHEMBL4616697, “Discovery of Adamantane Carboxamides as Ebola Virus Cell Entry and Glycoprotein Inhibitors” (ACS Med Chem Lett, 2020)
